Data reported in US20140066381A1, “NOVEL PEPTIDES THAT ARE MODULATORS OF THE PROTEIN TRF2 AND COMPOSITIONS CONTAINING SAME” (ISP INVESTMENTS INC., priority 2011, published 2014).
Ends that are not written are not given here.

Tests used:
Format in all cases: cell-based
[1] = system: Human skin biopsies; experiment: Human skin biopsies rendered senescent in vitro using methylglyoxal, H&E morphology
Method: Human skin biopsies are rendered artificially senescent in vitro, by means of a treatment with methylglyoxal (MGO). For this, des punch de 6-mm human skin punch biopsies are incubated at the air-liquid interface in a specific culture medium. They are then treated with 5 mM or 10 mM of MGO (Sigma) deposited at the surface of the biopsies and in the culture medium. The biopsies are then treated with: • condition 1: 20 μL of PBS 1×, or • condition 2: 20 μL of peptide SEQ ID NO: 4 at 1%, or • condition 3: 20 μL of peptide SEQ ID NO: 4 at 3%.
The biopsies are fixed and embedded in paraffin, and are then cut into 4-μm sections using a microtome. Hematoxyline/eosine (H&E) immunolabeling is performed on the sections previously cut and their morphology and structure are studied by microscopic observation (under a microscope Nikon Eclipse E600, objective 40×).

[2] = system: vimentin; experiment: Vimentin immunofluorescence detection in fibroblasts aged by replicative senescence; conditions: human fibroblasts, daily application of peptide at 1% or 3%, more than 17 passages, immunofluorescence at passages 6 and 17
Method: Human fibroblasts are placed in culture in a specific medium and kept in culture for a long treatment (for more than 17 passages), by means of a daily application of the peptide SEQ ID NO: 2 at a concentration of 1% or of 3%. A vimentin immunofluorescence detection experiment is performed on the cells in culture passages 6 and 17. The cells are then washed with PBS, fixed with 3.7% formaldehyde for 10 minutes, permeabilized by means of 0.2% Triton X-100 for 10 minutes (Fisher Chemical) and incubated with 1% BSA (Euromedex) for 15 minutes. An anti-vimentin antibody (Tebu Santa Cruz) is then added and incubated at a dilution of 1/200 for 2 h at room temperature. After washing with PBS, a Donkey anti-mouse IgG antibody, conjugated with a marker ALEXA FLUOR® 488, is added at a dilution of 1/1000 and incubated for one hour at room temperature. Finally, the sections are mounted with Fluoromount G (Electron Microscopy Science) and examined under a microscope (Nikon Eclipse 80i, enlargement 40×).

[3] = system: TRF2 protein; experiment: TRF2 protein expression by Western Blot in human fibroblasts with or without TRF2 siRNA; conditions: 72 h
Method: To quantify the efficacy of a peptide compound according to the invention, on the overexpression of TRF2 in a human fibroblast population, the gene coding for TRF2 was “turned off” by using the siRNA technique.
Fibroblast cells are placed in culture in a 6-well plate until 60% confluence. The culture medium is renewed by adding the peptide SEQ ID NO: 2 at 1% under the conditions described below. Then, 100 μL of a mixture previously produced containing, in the end, 10 nM of TRF2 siRNA and the transfection agent are gently added, one drop at a time, and one well at a time. The cell culture plate is incubated at 37° C. and 5% in CO2 for 72 h. The culture medium is renewed every 2 days. Four conditions were established: • condition 1: control without siRNA and without active agent • condition 2: cells transfected with the siRNA, without active agent • condition 3: cells not transfected but treated with the active agent • condition 4: cells transfected with the siRNA and treated with the active agent
The quantification of the TRF2 expression is observed by the classic immunotransfer technique (Western Blot) performed with an anti-TRF2 antibody and according to a classic protocol. […]

Substance	damage inflicted on the structures of the biopsies vs control conditions ([1]; 6-mm human skin punch biopsies, 5 mM or 10 mM MGO, 20 μL of peptide at 1% or 3%, H&E)	protective effect of the peptide, 3% dose vs 1% dose ([1]; human skin biopsies treated with MGO, 20 μL of peptide at 1% vs 3%)	vimentin expression in aged fibroblasts, treated vs not treated [2]	increase in the expression of the TRF2 protein with respect to the control ([3]; condition 3 vs condition 1: cells not transfected, peptide at 1%, Western Blot)	reduction in TRF2 expression with respect to the control condition ([3]; condition 4 vs condition 1: cells transfected with 10 nM TRF2 siRNA and treated with peptide at 1%)
Ala-Met-Lys-Lys-Gln-Lys-Trp-NH2 (AMKKQKW-NH2) [SEQ ID NO: 4]	much less significant	dose-dependent	–	–	–
Lys-Lys-Gln-Lys-Trp-NH2 (KKQKW-NH2) [SEQ ID NO: 2]	–	–	express less vimentin	17%	no more than 18%
